From ChEMBL document CHEMBL1152559, “Antioxidant activity of 5,10-dihydroindeno[1,2-b]indoles containing substituents on dihydroindeno part” (Bioorg Med Chem, 2009)
Values after ≈ are worked out from the molar mass of the structure shown. Each block holds one compound with its values, some of them ahead of it.

How the values were obtained:
Type in all cases: functional
[1] = system: Radical scavenging activity; test: Antioxidant activity assessed as DPPH radical scavenging activity
[2] = Antioxidant activity assessed as DMPD radical scavenging activity
[3] = Antioxidant activity assessed as ABTS radical scavenging activity
[4] = Antioxidant activity assessed as hydrogen peroxide radical scavenging activity
[5] = Antioxidant activity assessed as superoxide anion scavenging activity by NBT reduction assay

Structure (SMILES): COc1ccc2c(c1)-c1[nH]c3ccccc3c1C2
IC50 [1]: 48.57 µg/mL (≈ 206 µM)
IC50 [2]: 15.01 µg/mL (≈ 63.8 µM)
IC50 [3]: 54.15 µg/mL (≈ 230 µM)
IC50 [4]: 7.02 µg/mL (≈ 29.8 µM)
IC50 [5]: 19.86 µg/mL (≈ 84.4 µM)

Structure (SMILES): Brc1ccc2c(c1)Cc1c-2[nH]c2ccccc12
IC50 [1]: 64.12 µg/mL (≈ 226 µM)
IC50 [2]: 15.34 µg/mL (≈ 54 µM)
IC50 [3]: 63.63 µg/mL (≈ 224 µM)
IC50 [4]: 8.47 µg/mL (≈ 29.8 µM)
IC50 [5]: 14.39 µg/mL (≈ 50.6 µM)

Structure (SMILES): Fc1ccc2c(c1)Cc1c-2[nH]c2ccccc12
IC50 [1]: 49.73 µg/mL (≈ 223 µM)
IC50 [2]: 31.47 µg/mL (≈ 141 µM)
IC50 [3]: 39.1 µg/mL (≈ 175 µM)
IC50 [4]: 4.41 µg/mL (≈ 19.8 µM)
IC50 [5]: 16.49 µg/mL (≈ 73.9 µM)

Structure (SMILES): COc1ccc(OC)c2c1Cc1c-2[nH]c2ccccc12
IC50 [1]: 51.67 µg/mL (≈ 195 µM)
IC50 [2]: 24.87 µg/mL (≈ 93.7 µM)
IC50 [3]: 32.76 µg/mL (≈ 123 µM)
IC50 [4]: 3.92 µg/mL (≈ 14.8 µM)
IC50 [5]: 15.75 µg/mL (≈ 59.4 µM)

Structure (SMILES): c1ccc2c(c1)Cc1c-2[nH]c2ccccc12
IC50 [1]: 65.91 µg/mL (≈ 321 µM)
IC50 [2]: 32.92 µg/mL (≈ 160 µM)
IC50 [3]: 58.66 µg/mL (≈ 286 µM)
IC50 [4]: 7.14 µg/mL (≈ 34.8 µM)
IC50 [5]: 12.64 µg/mL (≈ 61.6 µM)

Structure (SMILES): COc1cccc2c1Cc1c-2[nH]c2ccccc12
IC50 [1]: 38.16 µg/mL (≈ 162 µM)
IC50 [2]: 28.5 µg/mL (≈ 121 µM)
IC50 [3]: 29.91 µg/mL (≈ 127 µM)
IC50 [4]: 3.74 µg/mL (≈ 15.9 µM)
IC50 [5]: 21.99 µg/mL (≈ 93.5 µM)

Structure (SMILES): COc1ccc2c(c1OC)Cc1c-2[nH]c2ccccc12
IC50 [1]: 33.16 µg/mL (≈ 125 µM)
IC50 [2]: 46.44 µg/mL (≈ 175 µM)
IC50 [3]: 81.39 µg/mL (≈ 307 µM)
IC50 [4]: 25.43 µg/mL (≈ 95.8 µM)
IC50 [5]: 12.42 µg/mL (≈ 46.8 µM)

Structure (SMILES): c1ccc2c3c([nH]c2c1)-c1cc2c(cc1C3)OCO2
IC50 [1]: 13.07 µg/mL (≈ 52.4 µM)
IC50 [2]: 18.62 µg/mL (≈ 74.7 µM)
IC50 [3]: 23.67 µg/mL (≈ 95 µM)
IC50 [4]: 3.39 µg/mL (≈ 13.6 µM)
IC50 [5]: 16.11 µg/mL (≈ 64.6 µM)

Structure (SMILES): COc1ccc2c(c1)Cc1c-2[nH]c2ccccc12
IC50 [1]: 37.79 µg/mL (≈ 161 µM)
IC50 [2]: 17.45 µg/mL (≈ 74.2 µM)
IC50 [3]: 68.03 µg/mL (≈ 289 µM)
IC50 [4]: 9.08 µg/mL (≈ 38.6 µM)
IC50 [5]: 24.37 µg/mL (≈ 104 µM)

Structure (SMILES): COc1cc2c(cc1OC)-c1[nH]c3ccccc3c1C2
IC50 [1]: 25.76 µg/mL (≈ 97.1 µM)
IC50 [2]: 52.83 µg/mL (≈ 199 µM)
IC50 [3]: 73.99 µg/mL (≈ 279 µM)
IC50 [4]: 13.86 µg/mL (≈ 52.2 µM)
IC50 [5]: 17.09 µg/mL (≈ 64.4 µM)

Structure (SMILES): Cc1c(C)c2c(c(C)c1O)CC[C@@](C)(CCC[C@H](C)CCC[C@H](C)CCCC(C)C)O2 [ALPHA-TOCOPHEROL]
IC50 [1]: 13.41 µg/mL (≈ 31.1 µM)
IC50 [3]: 73.15 µg/mL (≈ 170 µM)
IC50 [4]: 11.82 µg/mL (≈ 27.4 µM)
IC50 [5]: 33.17 µg/mL (≈ 77 µM)

Structure (SMILES): COc1ccc(O)c(C(C)(C)C)c1.COc1ccc(O)cc1C(C)(C)C [BUTYLATED HYDROXYANISOLE]
IC50 [1]: 16.67 µg/mL
IC50 [2]: 32.92 µg/mL
IC50 [3]: 4.65 µg/mL
IC50 [4]: 2.65 µg/mL
IC50 [5]: 68.82 µg/mL

Structure (SMILES): Cc1cc(C(C)(C)C)c(O)c(C(C)(C)C)c1 [BUTYLATED HYDROXYTOLUENE]
IC50 [1]: 42.91 µg/mL (≈ 195 µM)
IC50 [2]: 17.45 µg/mL (≈ 79.2 µM)
IC50 [3]: 52.81 µg/mL (≈ 240 µM)
IC50 [4]: 5.97 µg/mL (≈ 27.1 µM)
IC50 [5]: 49.48 µg/mL (≈ 225 µM)

Structure (SMILES): Cc1c(C)c2c(c(C)c1O)CCC(C)(C(=O)O)O2 (stereo not drawn) [TROLOX]
IC50 [1]: 10.03 µg/mL (≈ 40.1 µM)
IC50 [2]: 195.11 µg/mL (≈ 780 µM)
IC50 [3]: 62.32 µg/mL (≈ 249 µM)
IC50 [4]: 8.06 µg/mL (≈ 32.2 µM)

Second part, the compound after the results:

IC50 [1]: 33.31 µg/mL (≈ 126 µM)
IC50 [2]: 60.46 µg/mL (≈ 228 µM)
IC50 [3]: 23.04 µg/mL (≈ 86.8 µM)
IC50 [4]: 3.35 µg/mL (≈ 12.6 µM)
IC50 [5]: 20.43 µg/mL (≈ 77 µM)
Structure (SMILES): COc1cc2c(c(OC)c1)-c1[nH]c3ccccc3c1C2

IC50 [1]: 11.92 µg/mL (≈ 50.2 µM)
IC50 [2]: 22.2 µg/mL (≈ 93.6 µM)
IC50 [3]: 21.56 µg/mL (≈ 90.9 µM)
IC50 [4]: 3.28 µg/mL (≈ 13.8 µM)
IC50 [5]: 15.49 µg/mL (≈ 65.3 µM)
Structure (SMILES): Oc1ccc(O)c2c1Cc1c-2[nH]c2ccccc12

IC50 [1]: 11.67 µg/mL (≈ 52.7 µM)
IC50 [2]: 130.07 µg/mL (≈ 588 µM)
IC50 [3]: 39.85 µg/mL (≈ 180 µM)
IC50 [4]: 4.47 µg/mL (≈ 20.2 µM)
IC50 [5]: 26.61 µg/mL (≈ 120 µM)
Structure (SMILES): Oc1ccc2c(c1)Cc1c-2[nH]c2ccccc12

IC50 [1]: 29.44 µg/mL (≈ 124 µM)
IC50 [2]: 76.58 µg/mL (≈ 323 µM)
IC50 [3]: 45.98 µg/mL (≈ 194 µM)
IC50 [4]: 5.09 µg/mL (≈ 21.5 µM)
IC50 [5]: 14.1 µg/mL (≈ 59.4 µM)
Structure (SMILES): Oc1cc2c(cc1O)-c1[nH]c3ccccc3c1C2

IC50 [1]: 44.18 µg/mL (≈ 184 µM)
IC50 [2]: 57.89 µg/mL (≈ 242 µM)
IC50 [3]: 82.87 µg/mL (≈ 346 µM)
IC50 [4]: 30.52 µg/mL (≈ 127 µM)
IC50 [5]: 16.2 µg/mL (≈ 67.6 µM)
Structure (SMILES): Clc1ccc2c(c1)Cc1c-2[nH]c2ccccc12

IC50 [1]: 10.12 µg/mL (≈ 45.7 µM)
IC50 [2]: 127.21 µg/mL (≈ 575 µM)
IC50 [3]: 9.72 µg/mL (≈ 43.9 µM)
IC50 [4]: 2.8 µg/mL (≈ 12.7 µM)
IC50 [5]: 21.69 µg/mL (≈ 98 µM)
Structure (SMILES): Oc1cccc2c1-c1[nH]c3ccccc3c1C2

IC50 [1]: 9.47 µg/mL (≈ 39.9 µM)
IC50 [2]: 34.79 µg/mL (≈ 147 µM)
IC50 [3]: 79.02 µg/mL (≈ 333 µM)
IC50 [4]: 3.16 µg/mL (≈ 13.3 µM)
IC50 [5]: 31.14 µg/mL (≈ 131 µM)
Structure (SMILES): Oc1ccc2c(c1O)Cc1c-2[nH]c2ccccc12

IC50 [1]: 72.89 µg/mL (≈ 307 µM)
IC50 [2]: 39.38 µg/mL (≈ 166 µM)
IC50 [3]: 49.04 µg/mL (≈ 207 µM)
IC50 [4]: 5.47 µg/mL (≈ 23.1 µM)
IC50 [5]: 11.46 µg/mL (≈ 48.3 µM)
Structure (SMILES): Oc1cc(O)c2c(c1)Cc1c-2[nH]c2ccccc12

IC50 [1]: 36.27 µg/mL (≈ 164 µM)
IC50 [2]: 26.75 µg/mL (≈ 121 µM)
IC50 [3]: 64.69 µg/mL (≈ 292 µM)
IC50 [4]: 8.82 µg/mL (≈ 39.9 µM)
IC50 [5]: 18.67 µg/mL (≈ 84.4 µM)
Structure (SMILES): Oc1cccc2c1Cc1c-2[nH]c2ccccc12

IC50 [1]: 27.4 µg/mL (≈ 124 µM)
IC50 [2]: 14.76 µg/mL (≈ 66.7 µM)
IC50 [3]: 20.71 µg/mL (≈ 93.6 µM)
IC50 [4]: 3.25 µg/mL (≈ 14.7 µM)
IC50 [5]: 18.55 µg/mL (≈ 83.8 µM)
Structure (SMILES): Oc1ccc2c(c1)-c1[nH]c3ccccc3c1C2
